Measurements as given in patent US20160375006A1, “USES OF PARALOG-SELECTIVE INHIBITORS OF GSK3 KINASES” (priority 2012, published 2016).

Tests used:
CK1γ2 = CK1γ2 (Homo sapiens, UniProt P78368)
Protocol: (§1) This was completed utilizing one of two assays depending on the kinase being examined.
(§2) A solution of IMAP binding reagent (IMAP Screening Express kit; Molecular Devices) (60 μL) was added to each well and incubated for 30 minutes.
(§3) A solution of termination buffer (QuickScout Screening assist MSA; Carna Biosciences) (60 μL) was added to each well. The entire reaction mixture was then applied to a LabChip3000 system (Caliper Life Science) and the product and substrate peptide peaks were separated and quantified.
(§4) The assay utilized was identical to that of the single point inhibitory activity determination (MSA) but run in dose response. […] A solution of termination buffer (QuickScout Screening assist MSA; Carna Biosciences) (60 μL) was added to each well. The entire reaction mixture was then applied to a LabChip3000 system (Caliper Life Science) and the product and substrate peptide peaks were separated and quantified.

MLK3_Cascade = MLK3_Cascade (Homo sapiens, UniProt Q16584)
Protocol: as §1, §2, §3, §4

MET(Y1235D) = MET(Y1235D) (Homo sapiens, UniProt P08581, Y1235D)
Protocol: as §1, §2, §3, §4

EGFR(T790M/L858R) = EGFR(T790M/L858R) (Homo sapiens, UniProt P00533, L858R/T790M)
Protocol: as §1, §2, §3, §4

PAK6 = PAK6 (Homo sapiens, UniProt Q9NQU5)
Protocol: as §1, §2, §3, §4

RSK2 = RSK2 (Homo sapiens, UniProt P51812)
Protocol: as §1, §2, §3, §4

EGFR(T790M) = EGFR(T790M) (Homo sapiens, UniProt P00533, T790M)
Protocol: as §1, §2, §3, §4

PDGFRβ = PDGFRβ (Homo sapiens, UniProt P09619)
Protocol: as §1, §2, §3, §4

CK1δ = CK1δ (Homo sapiens, UniProt P48730)
PKCε = PKCε (Homo sapiens, UniProt Q02156)
Protocol: as §1, §2, §3, §4

EEF2K = EEF2K (Homo sapiens, UniProt O00418)
Protocol: as §1, §2, §3

MAP3K5_Cascade = MAP3K5_Cascade (Homo sapiens, UniProt Q99683)
Protocol: as §1, §2, §3, §4

CDC7/ASK = CDC7/ASK (Homo sapiens, UniProt O00311)
Protocol: as §1, §2, §3, §4

PKCα = PKCα (Homo sapiens, UniProt P17252)
Protocol: as §1, §2, §3, §4

AurA/TPX2 = AurA/TPX2 (Homo sapiens, UniProt O14965)
Protocol: as §1, §2, §3, §4

PBK = PBK (Homo sapiens, UniProt Q96KB5)
Protocol: as §1, §2, §3, §4

FLT1 = FLT1 (Homo sapiens, UniProt P17948)
Protocol: as §1, §2, §3, §4

RET(S891A) = RET(S891A) (Homo sapiens, UniProt P07949, S891A)
Protocol: as §1, §2, §3, §4

SPHK2 = SPHK2 (Homo sapiens, UniProt Q9NRA0)
Protocol: as §1, §2, §3, §4

LOK = LOK (Homo sapiens, UniProt O94804)
Protocol: as §1, §2, §3

KIT(V654A) = KIT(V654A) (Homo sapiens, UniProt P10721, V654A)
Protocol: as §1, §2, §3, §4

EPHA7 = EPHA7 (Homo sapiens, UniProt Q15375)
Protocol: as §1, §2, §3, §4

MLK1_Cascade = MLK1_Cascade (Homo sapiens, UniProt P80192)
Protocol: as §1, §3
The assay utilized was identical to that of the single point inhibitory activity determination (MSA) but run in dose response.

PKD2 = PKD2 (Homo sapiens, UniProt Q9BZL6)
Protocol: as §1, §2, §3, §4

PKN1 = PKN1 (Homo sapiens, UniProt Q16512)
Protocol: as §1, §2, §3, §4

FGFR3(K650E) = FGFR3(K650E) (Homo sapiens, UniProt P22607, K650E)
Protocol: as §1, §2, §3, §4

skMLCK = skMLCK (Homo sapiens, UniProt Q9H1R3)
Protocol: as §1, §2, §3, §4

HGK = HGK (Homo sapiens, UniProt O95819)
Protocol: as §2, §3, §4

MSSK1 = MSSK1 (Homo sapiens, UniProt Q9UPE1)
Protocol: as §1, §2, §3, §4

FER = FER (Homo sapiens, UniProt P16591)
Protocol: as §1, §2, §3

SRPK1 = SRPK1 (Homo sapiens, UniProt Q96SB4)
Protocol: as §1, §2, §3, §4

YES = YES (Homo sapiens, UniProt P07947)
Protocol: as §1, §2, §3

Haspin = Haspin (Homo sapiens, UniProt Q8TF76)
Protocol: as §1, §2, §3, §4

CDK6/CycD3 = CDK6/CycD3 (Homo sapiens, UniProt Q00534)
Protocol: as §1, §2, §3, §4

MLK2_Cascade = MLK2_Cascade (Homo sapiens, UniProt Q02779)
Protocol: as §1, §2, §3, §4

SGK2 = SGK2 (Homo sapiens, UniProt Q9HBY8)
Protocol: as §1, §2, §3, §4

TAK1-TAB1_Cascade = TAK1-TAB1_Cascade (Homo sapiens, UniProt O43318)
Protocol: as §1, §2, §3, §4

FLT4 = FLT4 (Homo sapiens, UniProt P35916)
Protocol: as §1, §2, §3, §4

MAP2K2_Cascade = MAP2K2_Cascade (Homo sapiens, UniProt P36507)
Protocol: as §1, §2, §3

Chain of CDK6/CycD3 (Q00534 whole entry): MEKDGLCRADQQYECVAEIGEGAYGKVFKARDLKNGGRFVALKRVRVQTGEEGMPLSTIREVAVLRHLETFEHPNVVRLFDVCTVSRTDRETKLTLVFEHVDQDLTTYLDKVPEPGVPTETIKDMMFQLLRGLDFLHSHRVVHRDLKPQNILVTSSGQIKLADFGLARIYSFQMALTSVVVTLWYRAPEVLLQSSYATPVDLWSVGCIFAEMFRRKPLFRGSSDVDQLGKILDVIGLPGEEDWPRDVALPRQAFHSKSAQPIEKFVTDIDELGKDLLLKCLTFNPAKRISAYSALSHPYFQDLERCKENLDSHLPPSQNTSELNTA
Chain of CDK6/CycD3 (P30281 whole entry partner): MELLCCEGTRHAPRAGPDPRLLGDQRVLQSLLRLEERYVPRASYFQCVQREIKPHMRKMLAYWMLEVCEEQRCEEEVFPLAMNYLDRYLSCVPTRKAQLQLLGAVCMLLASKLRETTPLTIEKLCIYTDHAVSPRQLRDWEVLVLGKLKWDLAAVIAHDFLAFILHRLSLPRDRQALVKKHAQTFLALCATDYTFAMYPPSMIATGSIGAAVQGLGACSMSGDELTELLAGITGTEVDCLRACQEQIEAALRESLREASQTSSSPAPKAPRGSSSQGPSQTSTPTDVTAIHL
Chain of KIT(V654A) (P10721 26-976 V654A): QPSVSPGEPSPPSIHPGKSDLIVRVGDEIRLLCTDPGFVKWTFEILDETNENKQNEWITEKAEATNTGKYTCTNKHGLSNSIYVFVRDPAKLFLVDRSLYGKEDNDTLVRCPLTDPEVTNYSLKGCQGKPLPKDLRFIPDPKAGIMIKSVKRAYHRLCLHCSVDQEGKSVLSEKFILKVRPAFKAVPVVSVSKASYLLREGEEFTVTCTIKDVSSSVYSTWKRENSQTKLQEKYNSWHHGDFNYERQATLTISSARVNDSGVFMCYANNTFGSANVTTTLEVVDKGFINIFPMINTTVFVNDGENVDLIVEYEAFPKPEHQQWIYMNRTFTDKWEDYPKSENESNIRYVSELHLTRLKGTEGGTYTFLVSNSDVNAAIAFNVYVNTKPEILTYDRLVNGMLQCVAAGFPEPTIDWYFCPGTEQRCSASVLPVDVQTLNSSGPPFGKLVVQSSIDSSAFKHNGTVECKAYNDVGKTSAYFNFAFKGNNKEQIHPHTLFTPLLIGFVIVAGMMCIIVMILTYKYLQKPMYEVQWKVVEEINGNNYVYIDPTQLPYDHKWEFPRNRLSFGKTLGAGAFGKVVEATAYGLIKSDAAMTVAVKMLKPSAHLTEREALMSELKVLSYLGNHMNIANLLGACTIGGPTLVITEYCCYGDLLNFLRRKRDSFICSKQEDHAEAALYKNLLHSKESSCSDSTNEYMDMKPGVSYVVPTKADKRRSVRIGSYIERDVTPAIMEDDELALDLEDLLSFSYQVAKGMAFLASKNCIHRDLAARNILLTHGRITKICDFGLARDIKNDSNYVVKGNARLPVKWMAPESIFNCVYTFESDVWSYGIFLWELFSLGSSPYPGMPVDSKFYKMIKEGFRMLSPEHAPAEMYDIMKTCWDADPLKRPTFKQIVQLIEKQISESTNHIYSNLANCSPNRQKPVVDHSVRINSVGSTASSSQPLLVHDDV
Chain of MLK3_Cascade (Q16584 whole entry): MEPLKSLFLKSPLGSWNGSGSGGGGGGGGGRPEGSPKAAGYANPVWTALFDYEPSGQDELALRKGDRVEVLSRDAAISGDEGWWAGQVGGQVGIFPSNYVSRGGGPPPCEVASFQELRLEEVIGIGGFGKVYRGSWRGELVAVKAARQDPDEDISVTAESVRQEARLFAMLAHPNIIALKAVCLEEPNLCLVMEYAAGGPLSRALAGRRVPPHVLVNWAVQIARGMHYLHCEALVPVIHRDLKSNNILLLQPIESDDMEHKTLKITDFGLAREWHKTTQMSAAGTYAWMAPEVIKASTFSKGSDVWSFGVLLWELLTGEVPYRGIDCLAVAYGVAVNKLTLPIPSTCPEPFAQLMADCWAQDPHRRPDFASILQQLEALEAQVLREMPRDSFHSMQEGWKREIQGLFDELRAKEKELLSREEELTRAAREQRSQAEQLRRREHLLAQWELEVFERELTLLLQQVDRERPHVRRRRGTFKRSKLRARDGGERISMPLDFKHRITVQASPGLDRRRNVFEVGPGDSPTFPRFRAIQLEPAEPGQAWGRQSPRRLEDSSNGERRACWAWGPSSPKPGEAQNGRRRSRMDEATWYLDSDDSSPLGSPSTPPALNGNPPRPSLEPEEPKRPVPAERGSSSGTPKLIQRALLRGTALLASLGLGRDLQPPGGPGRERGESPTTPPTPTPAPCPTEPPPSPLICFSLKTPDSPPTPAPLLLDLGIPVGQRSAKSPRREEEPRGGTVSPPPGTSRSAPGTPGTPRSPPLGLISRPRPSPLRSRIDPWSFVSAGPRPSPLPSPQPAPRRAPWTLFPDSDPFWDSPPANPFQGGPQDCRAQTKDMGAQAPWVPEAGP
Chain of PDGFRβ (P09619 33-1106): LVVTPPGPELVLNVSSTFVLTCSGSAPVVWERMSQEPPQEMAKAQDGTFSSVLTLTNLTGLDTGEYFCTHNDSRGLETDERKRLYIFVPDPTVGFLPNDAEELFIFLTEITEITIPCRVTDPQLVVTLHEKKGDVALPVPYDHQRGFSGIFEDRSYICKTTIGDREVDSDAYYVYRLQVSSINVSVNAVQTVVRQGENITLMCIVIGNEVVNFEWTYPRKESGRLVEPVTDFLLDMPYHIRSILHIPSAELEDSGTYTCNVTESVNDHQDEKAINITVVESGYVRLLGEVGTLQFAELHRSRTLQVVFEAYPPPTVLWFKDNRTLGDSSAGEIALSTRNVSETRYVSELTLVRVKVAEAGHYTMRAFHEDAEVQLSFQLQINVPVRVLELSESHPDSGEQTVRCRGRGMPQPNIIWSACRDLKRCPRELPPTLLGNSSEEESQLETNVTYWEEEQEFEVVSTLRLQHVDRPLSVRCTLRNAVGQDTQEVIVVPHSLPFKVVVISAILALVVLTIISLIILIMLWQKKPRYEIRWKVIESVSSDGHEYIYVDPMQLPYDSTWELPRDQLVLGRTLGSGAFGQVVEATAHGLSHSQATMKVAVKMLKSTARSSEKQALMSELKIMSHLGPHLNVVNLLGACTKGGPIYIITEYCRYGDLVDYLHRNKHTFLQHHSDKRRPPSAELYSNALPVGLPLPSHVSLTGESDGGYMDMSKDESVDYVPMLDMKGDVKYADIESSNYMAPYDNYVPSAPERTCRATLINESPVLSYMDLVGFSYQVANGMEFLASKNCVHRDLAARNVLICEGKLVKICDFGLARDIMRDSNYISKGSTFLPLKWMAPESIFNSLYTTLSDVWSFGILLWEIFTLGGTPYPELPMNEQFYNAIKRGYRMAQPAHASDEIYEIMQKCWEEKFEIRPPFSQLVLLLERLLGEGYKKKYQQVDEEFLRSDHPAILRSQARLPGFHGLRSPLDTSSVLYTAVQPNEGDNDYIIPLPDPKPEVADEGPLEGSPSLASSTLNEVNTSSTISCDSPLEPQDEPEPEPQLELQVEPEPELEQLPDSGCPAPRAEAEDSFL
Chain of EEF2K (O00418 whole entry): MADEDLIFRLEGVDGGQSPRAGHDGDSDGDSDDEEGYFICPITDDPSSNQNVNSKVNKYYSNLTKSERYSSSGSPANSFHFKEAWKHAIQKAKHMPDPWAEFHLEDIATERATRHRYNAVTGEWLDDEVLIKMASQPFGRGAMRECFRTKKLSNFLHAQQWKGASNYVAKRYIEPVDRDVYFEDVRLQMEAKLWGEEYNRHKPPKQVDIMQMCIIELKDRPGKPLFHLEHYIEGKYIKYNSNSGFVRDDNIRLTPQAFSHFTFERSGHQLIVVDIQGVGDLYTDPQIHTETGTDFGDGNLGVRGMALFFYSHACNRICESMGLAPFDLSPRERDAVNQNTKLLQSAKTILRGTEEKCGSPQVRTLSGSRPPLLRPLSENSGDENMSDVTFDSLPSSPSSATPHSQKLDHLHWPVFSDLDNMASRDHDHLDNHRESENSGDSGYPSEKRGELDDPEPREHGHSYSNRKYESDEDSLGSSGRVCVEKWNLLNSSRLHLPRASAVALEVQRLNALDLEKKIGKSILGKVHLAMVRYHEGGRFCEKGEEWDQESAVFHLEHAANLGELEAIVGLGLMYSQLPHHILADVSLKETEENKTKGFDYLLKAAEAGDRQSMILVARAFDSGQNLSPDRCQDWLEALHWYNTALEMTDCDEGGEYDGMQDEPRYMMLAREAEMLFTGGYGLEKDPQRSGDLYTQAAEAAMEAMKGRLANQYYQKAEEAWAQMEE
Protocol for MAP3K2_Cascade: as §1, §2, §3, §4

CC[C@@]1(c2ccccc2)C2=C(CC(C)(C)CC2=O)Nc2n[nH]cc21 [BRD0705]
% Inhibition at 10 μM (CK1γ2): −11.8% | % Inhibition at 10 μM (MLK3_Cascade): 4.6% | % Inhibition at 10 μM (MET(Y1235D)): −1.0% | % Inhibition at 10 μM (EGFR(T790M/L858R)): −4.0% | % Inhibition at 10 μM (PAK6): −10.7% | % Inhibition at 10 μM (RSK2): 0.4% | % Inhibition at 10 μM (EGFR(T790M)): −4.9% | % Inhibition at 10 μM (PDGFRβ): 0.3% | % Inhibition at 10 μM (CK1δ): −3.9% | % Inhibition at 10 μM (PKCε): −4.5% | % Inhibition at 10 μM (EEF2K): −6.4% | % Inhibition at 10 μM (MAP3K5_Cascade): 1.9% | % Inhibition at 10 μM (CDC7/ASK): −7.2% | % Inhibition at 10 μM (PKCα): −0.5% | % Inhibition at 10 μM (AurA/TPX2): −5.3% | % Inhibition at 10 μM (MAP3K2_Cascade): 1.0% | % Inhibition at 10 μM (PBK): −8.0% | % Inhibition at 10 μM (FLT1): −2.6% | % Inhibition at 10 μM (RET(S891A)): −3.1% | % Inhibition at 10 μM (SPHK2): −3.8% | % Inhibition at 10 μM (LOK): 9.6% | % Inhibition at 10 μM (KIT(V654A)): −1.0% | % Inhibition at 10 μM (EPHA7): −5.3% | % Inhibition at 10 μM (MLK1_Cascade): 6.3% | % Inhibition at 10 μM (PKD2): −22.1% | % Inhibition at 10 μM (PKN1): 1.8% | % Inhibition at 10 μM (FGFR3(K650E)): −15.5% | % Inhibition at 10 μM (skMLCK): −2.5% | % Inhibition at 10 μM (HGK): 14.9% | % Inhibition at 10 μM (MSSK1): −1.6% | % Inhibition at 10 μM (FER): 1.7% | % Inhibition at 10 μM (SRPK1): −2.0% | % Inhibition at 10 μM (YES): 7.9% | % Inhibition at 10 μM (Haspin): −5.1% | % Inhibition at 10 μM (CDK6/CycD3; CDK6/CycD3): −0.5% | % Inhibition at 10 μM (MLK2_Cascade): 2.1% | % Inhibition at 10 μM (SGK2): 0.8% | % Inhibition at 10 μM (TAK1-TAB1_Cascade): 5.0% | % Inhibition at 10 μM (FLT4): −7.9% | % Inhibition at 10 μM (MAP2K2_Cascade): 1.3%

CC(C)(C)Cc1[nH]nc2c1[C@](C)(c1ccccc1)C1=C(CC(C)(C)CC1=O)N2 [BRD3731]
% Inhibition 10 μM (CK1γ2; 10 μM): 3.6% | % Inhibition 10 μM (MLK3_Cascade; 10 μM): −0.8% | % Inhibition 10 μM (MET(Y1235D); 10 μM): 1.2% | % Inhibition 10 μM (EGFR(T790M/L858R); 10 μM): −4.0% | % Inhibition 10 μM (PAK6; 10 μM): −46.8% | % Inhibition 10 μM (RSK2; 10 μM): 42.8% | % Inhibition 10 μM (EGFR(T790M); 10 μM): −4.0% | % Inhibition 10 μM (PDGFRβ; 10 μM): 3.1% | % Inhibition 10 μM (CK1δ; 10 μM): 10.7% | % Inhibition 10 μM (PKCε; 10 μM): 1.8% | % Inhibition 10 μM (EEF2K; 10 μM): 3.9% | % Inhibition 10 μM (MAP3K5_Cascade; 10 μM): 0.4% | % Inhibition 10 μM (CDC7/ASK; 10 μM): −3.1% | % Inhibition 10 μM (PKCα; 10 μM): 8.1% | % Inhibition 10 μM (AurA/TPX2; 10 μM): 3.8% | % Inhibition 10 μM (MAP3K2_Cascade; 10 μM): −0.7% | % Inhibition 10 μM (PBK; 10 μM): 0.6% | % Inhibition 10 μM (FLT1; 10 μM): 3.2% | % Inhibition 10 μM (RET(S891A); 10 μM): −0.6% | % Inhibition 10 μM (SPHK2; 10 μM): 15.2% | % Inhibition 10 μM (LOK; 10 μM): −1.0% | % Inhibition 10 μM (KIT(V654A); 10 μM): −1.9% | % Inhibition 10 μM (EPHA7; 10 μM): −3.0% | % Inhibition 10 μM (MLK1_Cascade; 10 μM): −9.4% | % Inhibition 10 μM (PKD2; 10 μM): 17.2% | % Inhibition 10 μM (PKN1; 10 μM): 16.2% | % Inhibition 10 μM (FGFR3(K650E); 10 μM): 0.7% | % Inhibition 10 μM (skMLCK; 10 μM): 9.4% | % Inhibition 10 μM (HGK; 10 μM): −3.8% | % Inhibition 10 μM (MSSK1; 10 μM): 2.8% | % Inhibition 10 μM (FER; 10 μM): 6.4% | % Inhibition 10 μM (SRPK1; 10 μM): 5.0% | % Inhibition 10 μM (YES; 10 μM): 1.6% | % Inhibition 10 μM (Haspin; 10 μM): 5.3% | IC50 (CDK6/CycD3; CDK6/CycD3): > 10 µM | % Inhibition 10 μM (CDK6/CycD3; CDK6/CycD3, 10 μM): 28.3% | Fold Selectivity (CDK6/CycD3; IC50 CDK6/CycD3 / IC50 GSK3β): >370 fold | % Inhibition 10 μM (MLK2_Cascade; 10 μM): 0.3% | % Inhibition 10 μM (SGK2; 10 μM): 10.4% | % Inhibition 10 μM (TAK1-TAB1_Cascade; 10 μM): 1.7% | % Inhibition 10 μM (FLT4; 10 μM): 16.8% | % Inhibition 10 μM (MAP2K2_Cascade; 10 μM): −0.4%
